This is an account of results in US20250281489A1, “BIOMARKERS FOR PREDICTING SENSITIVITY TO CANCER TREATMENTS” (Genentech, Inc., priority 2011, published 2025).

In assay [1] the test system is mutant AKT1 enzymes (E17K, L52R and D323H). As to the kind of experiment: biochemical activity assay, recombinant full-length mutant AKT1 enzymes. As to conditions: in words. From the text: (§1) Several ATP-competitive and allosteric small molecule inhibitors of AKT are in development and/or clinical trials (Mattmann et al., (2011). Expert Opin Ther Pat.; Pal et al., (2010). Expert Opin Investig Drugs 19, 1355-1366). Previous studies have shown that allosteric inhibitors of AKT require the presence of an intact PH-KD interface for their activity. Given that some AKT1 somatic mutants have impaired PH-KD contacts, it was predicted that allosteric inhibitors are likely to be less efficacious in inhibiting the activity of these mutants.

Assay [2] can be described thus: combo screens with 5FU/Cisplatin. Format: cell-based. The settings on record: combination with Cisplatin+5FU; associated with PTEN, pAKT, PI3K mutation. The source says: FIG. 15 depicts results that the combination effects of GDC-0068 with Cisplatin+5FU are associated with AKT pathway activation.
The next assay concerns pGSK-3β. As to the kind of experiment: surrogate PD biomarker assay: phospho-GSK-3β in platelet rich plasma of patients. Format: in vivo, human. The settings on record: doses≥200 mg, ratio to pre-dose. As for the experimental part: Phospho-GSK-3b in Platelet rich plasma (PRP) was used as a surrogate PD biomarker to measure Akt pathway inhibition in patients after treatment with GDC-0068 at different time points over 22 days. Peripheral blood was collected in Vacutainer containing 0.38% of citrate as anti-coagulant. Blood was spun at 200 g for 15 min at room temperature. The PRP layer was carefully taken from the tube and then lysed in a buffer containing detergents, protease and phosphatase inhibitors. Phosphorylated and total GSK-3β levels in PRP lysates were measured using a phospho-GSK3β/total-GSK30 multiplexed MSD assay. pGSk-3β levels were normalized to total GSk-3β levels and post-dose inhibition of pGSk-3β was expressed as a ratio of the pre-dose levels for each patient.

The test system of another assay is pPRAS40. As to the kind of experiment: reverse phase protein arrays of tumor biopsies from patients: pPRAS40. The assay is classed as in vivo, human. As to conditions: all 3 patients treated at 400 mg daily. How it is done: (§2) Core-needle tumor biopsies from patients treated with GDCC0068 were flash-frozen in OCT and sectioned into 8 um slices. Tissue was lysed in RPPA lysis buffer containing TPER, 300 mM NaCl and phosphatase inhibitors. Phosphoprotein signatures of the lysates were analysed using Reverse-Phase protein arrays: samples were printed on nitrocellulose slides and stained with Sypro to determine total protein concentrations. Each slide was stained with a different antibody at 4° C. overnight. The data was then normalized to total protein levels and spatial effects were removed using Quadrant median normalization. Decreases of 60%-70% in pPRAS40 and ˜50% decrease in Cyclin D1 (compared with baseline) occurred in all 3 patients treated at 400 mg daily. For methods and overview of RPPA see: Reverse phase protein microarrays advance to use in clinical trials, Molecular Oncology. 2010 December; 4(6):461-81, Mueller C et al. In certain embodiments, the cancer to be treated herein comprises one or more of AKT, PI3k, PTEN and HER2 mutations or AKT, PI3k, PTEN or HER2 abberant signaling. In one example, the cancer is gastric cancer comprising high pAKT activity and PTEN low or null status.

The subject of another assay is xenograft models. As to the kind of experiment: single agent activity in xenograft models. As to conditions: models with AKT pathway activation and without MEK pathway activation. Format: in vivo.
The test system of a further assay is Cyclin D1. As to the kind of experiment: reverse phase protein arrays of tumor biopsies from patients: Cyclin D1. Format: in vivo, human. The settings on record: all 3 patients treated at 400 mg daily. How it is done:
as §2

Assay [3] concerns cell lines with AKT pathway activation (PTEN loss, PI3K mutations). As to the kind of experiment: combination with MEK inhibitor in cell lines, BLISS analysis. Format: cell-based. The settings on record: in combination with a MEK inhibitor (GDC-0973). From the text: BLISS analysis indicates broad synergy for GDC-0068 in combination with a MEK inhibitor (GDC-0973).
Another assay has as its target T1, AKT1 kinase domain alone (Homo sapiens, UniProt P31749).
T1 construct: using purified recombinant PH and kinase domains
As to the kind of experiment: in vitro biochemical assay, AKT1 kinase domain alone. The settings on record: purified recombinant kinase domain, no PH domain. As for the experimental part:
(§3) To confirm that the reduced sensitivity of the mutants to allosteric inhibitors was due to the impaired PH-KD interactions, an in vitro biochemical reconstitution assay was performed using purified recombinant PH and kinase domains.

The target in assay [4] is T2, WT PH domain reconstituted with mutant D323H kinase domain (Homo sapiens, UniProt P31749, D323H).
T2 construct: using purified recombinant PH and kinase domains
T2 sequence (P31749 150-408 D323H limits assumed): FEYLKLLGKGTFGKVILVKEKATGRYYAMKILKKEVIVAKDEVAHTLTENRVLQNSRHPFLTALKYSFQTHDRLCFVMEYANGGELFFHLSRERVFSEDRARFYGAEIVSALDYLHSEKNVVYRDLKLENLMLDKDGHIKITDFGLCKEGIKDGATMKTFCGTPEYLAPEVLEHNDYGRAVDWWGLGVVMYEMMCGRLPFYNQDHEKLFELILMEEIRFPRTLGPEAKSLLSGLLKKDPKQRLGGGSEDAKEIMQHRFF
As to the kind of experiment: in vitro biochemical reconstitution assay, WT PH domain with D323H kinase domain. The settings on record: in words. As for the experimental part: as §3

For assay [5], the system named is NIH3T3 cells expressing WT or AKT1 mutants. As to the kind of experiment: cell based proliferation assay, NIH3T3 cells expressing WT or AKT1 mutants.
Text: as §1

In assay [6] the test system is AKT1 kinase domain reconstituted with WT PH domain. As to the kind of experiment: in vitro biochemical reconstitution assay, WT PH domain added to kinase domain. As for the experimental part:
as §3

The target of a further assay is T3, WT AKT1 enzyme (Homo sapiens, UniProt P31749).
T3 construct: were tested on recombinant full-length WT and mutant AKT1 enzymes
T3 sequence (P31749 whole entry): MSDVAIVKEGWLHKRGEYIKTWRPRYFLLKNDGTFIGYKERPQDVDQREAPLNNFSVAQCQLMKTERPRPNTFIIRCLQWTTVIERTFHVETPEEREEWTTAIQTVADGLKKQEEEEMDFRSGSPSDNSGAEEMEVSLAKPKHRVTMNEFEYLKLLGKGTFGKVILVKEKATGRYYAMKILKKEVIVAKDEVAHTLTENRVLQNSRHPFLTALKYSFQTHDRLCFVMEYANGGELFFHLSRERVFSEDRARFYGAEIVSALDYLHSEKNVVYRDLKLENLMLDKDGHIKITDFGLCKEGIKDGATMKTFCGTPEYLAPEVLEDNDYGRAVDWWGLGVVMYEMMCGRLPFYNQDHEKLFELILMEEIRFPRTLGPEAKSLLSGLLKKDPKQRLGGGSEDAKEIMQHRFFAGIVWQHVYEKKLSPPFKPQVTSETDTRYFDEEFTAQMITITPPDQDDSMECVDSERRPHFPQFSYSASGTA
As to the kind of experiment: biochemical activity assay, recombinant full-length WT AKT1 enzyme. As to conditions: in words. The source says:
Several ATP-competitive and allosteric small molecule inhibitors of AKT are in development and/or clinical trials (Mattmann et al., (2011). Expert Opin Ther Pat.; Pal et al., (2010). Expert Opin Investig Drugs 19, 1355-1366).

A word on the pIC50: it is the IC50 on a negative log10 scale, so that one unit is a factor of ten.

Structures are written as SMILES. pIC50: −log10 of the molar value.

T1 sequence (P31749 150-408 limits assumed): as the sequence (P31749 150-408 D323H limits assumed) above, with H174D counted along it

Take `NC(=O)[C@@H]1CCCCN1CCCN(C(=O)c1cccs1)c1nc(-c2ccncc2)cs1` [GNE-929]: the “effectiveness against recombinant full-length mutant enzymes compared to WT AKT1” value in assay [1] is “less effective”.
In the case of `CC(C)NC[C@@H](C(=O)N1CCN(c2ncnc3c2[C@H](C)C[C@H]3O)CC1)c1ccc(Cl)cc1` [GDC-0068], the combination effect entry in assay [2] is listed as “additive effects”. Moreover, the “decrease in pGSK3β level” value in the assay with pGSK-3β is ≥ 75%. The “decrease in pPRAS40 compared with baseline” value in the assay with pPRAS40 is on record as 60%-70%. In addition, the “single agent efficacy in xenograft models” value with xenograft models was “Robust efficacy”. Also, the “decrease in Cyclin D1 compared with baseline” value with Cyclin D1 is ~50%. Also, the “combination effect, BLISS analysis” value in assay [3] is “broad synergy”.
Consider `O=c1[nH]c2ccccc2n1C1CCN(Cc2ccc(-c3nc4cc5[nH]cnc5cc4nc3-c3ccccc3)cc2)CC1` [Inhibitor VIII], for which the “blocking activity of AKT1 kinase domain alone” value on AKT1 kinase domain alone is listed as “unable to block its activity”. Also, the “activity when WT PH domain was reconstituted with mutant D323H kinase domain” value in assay [4] is reported as “no activity”. In [5], the “less effective at blocking proliferation of cells expressing mutant AKT1 compared to WT AKT” value is “at least 50%”. The “increase in IC50 for the reconstituted enzyme compared to the full length WT enzyme” value in assay [6] is on record as “three fold”. Further, the pIC50 in assay [6] (reconstituted enzyme, WT PH domain + kinase domain) is 6.62.
For `CCn1c(-c2nonc2N)nc2c(C#CC(C)(C)O)ncc(OC[C@H]3CCCNC3)c21` [GSK690693], at WT AKT1 enzyme, the “blocking the activity of the WT AKT1 enzyme” value is “effective”. In addition, in assay [1] (E17K, L52R and D323H), the “blocking the activity of the mutant enzymes” value is listed as “effective”.
